Here are results for one compound from patent US20170224679A1, “Use of CXCR2 Antagonists For The Prevention and/or Treatment of Chemotherapy Induced Peripheral Neuropathy (CIPN)” (GlaxoSmithKline Intellectual Property Development Limited, priority 2014, published 2017).

For one assay, the target named is T1, CXCR1 receptor (Homo sapiens, UniProt P25024).
T1 sequence (P25024 1-350): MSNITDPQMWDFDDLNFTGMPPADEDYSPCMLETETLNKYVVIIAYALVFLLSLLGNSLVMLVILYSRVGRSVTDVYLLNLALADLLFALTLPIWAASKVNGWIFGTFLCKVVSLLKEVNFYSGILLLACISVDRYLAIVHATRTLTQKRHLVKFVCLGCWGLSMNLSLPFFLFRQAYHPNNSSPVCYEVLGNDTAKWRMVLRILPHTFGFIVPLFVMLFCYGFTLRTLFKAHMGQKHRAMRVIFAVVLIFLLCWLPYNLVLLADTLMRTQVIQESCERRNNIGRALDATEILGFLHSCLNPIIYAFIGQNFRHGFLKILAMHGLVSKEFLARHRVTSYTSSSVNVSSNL
Kind of assay: GPCR Arrestin Assay (DiscoveRX PathHunter), CXCR1. Conditions: PathHunter CHO cells, agonist at EC80; read-out: pIC50 against the CXCR1 receptor (converted). The class given is cell-based. The arrangement: host or cells: PathHunter CHO cell lines. The method, then:
Certain compounds of the invention were also tested by DiscoveRX Corporation (42501 Albrae Street, Fremont, Calif. 94538, United States) in their GPCR Arrestin Assay to determine their activity against a panel of receptors including CXCR2 and CXCR1. PathHunter CHO cell lines were expanded from freezer stocks according to standard procedures. Cells were seeded in a total volume of 20 μL into white walled, 384-well microplates and incubated at 37° C. for the appropriate time prior to testing. The cells were pre-incubated with antagonist followed by agonist challenge at the EC80 concentration. Intermediate dilution of sample stocks was performed to generate 5× sample in assay buffer. 5 μL of 5× sample was added to cells and incubated at 37° C. or room temperature for 30 minutes. […] Assay signal was generated through a single addition of 12.5 or 15 μL (50% v/v) of PathHunter Detection reagent cocktail, followed by one hour incubation at room temperature. Microplates were read following signal generation with a PerkinElmer Envision™ instrument for chemiluminescent signal detection. Compound activity was analyzed using CBIS data analysis suite (ChemInnovation, Calif.).

The target in the next assay is T2, CXCR2 receptor (Homo sapiens, UniProt P25025).
T2 sequence (P25025 1-360): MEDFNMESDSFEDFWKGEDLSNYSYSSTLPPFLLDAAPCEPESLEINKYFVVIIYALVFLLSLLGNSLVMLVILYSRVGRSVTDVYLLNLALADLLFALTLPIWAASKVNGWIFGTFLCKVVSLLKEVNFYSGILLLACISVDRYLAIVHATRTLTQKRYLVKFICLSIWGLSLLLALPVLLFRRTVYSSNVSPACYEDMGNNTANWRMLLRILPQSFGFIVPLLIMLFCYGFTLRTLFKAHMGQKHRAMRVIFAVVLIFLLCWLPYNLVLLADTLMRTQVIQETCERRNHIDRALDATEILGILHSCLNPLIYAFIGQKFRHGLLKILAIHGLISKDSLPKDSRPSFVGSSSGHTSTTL
Kind of assay: Human whole blood assay version ii) (CD11b, GROα stimulated). The class given is cell-based. The arrangement: Assay d) measures the cellular functional activity to the native expressed human CXCR2 in whole blood; endogenous in cells; host or cells: human whole blood (neutrophils). As to conditions: 33 nM GROα, neutrophil CD11b, read-out: pIC50 against the CXCR2 receptor (converted). The method, then: Blood was withdrawn by venipuncture from consented adults and poured into a Sterilin tube containing an anti-coagulant Heparin (10 μL/mL of blood). All the test compounds were dissolved in DMSO to 4 mM and serial diluted across the plate, 1 in 3 to provide 10 point dose response curves. The compounds were then diluted 100 fold in -PBS [Phosphate buffered saline (without Calcium Chloride and Magnesium Chloride)] after which, 1 μL was dispensed in 96 U bottom Costar plates using an FX. This was done to reduce the final DMSO concentration to 0.25% and for compounds to be screened at 10 uM final assay concentration, after addition of blood.
10 μL of blood was transferred to the compound plate using a multi-channel pipette, gently tapped and incubated for 15 minutes, at 37° C. After 15 minutes, the stimulant GROα was diluted to 100 nM in 0.1% BSA (Albumin Bovine Serum)-PBS and 5 μL is dispensed across the whole plate for a final concentration of 33 nM. The plate was gently tapped and incubated further for 15 minutes at 37° C. […]
Samples were run on a Becton and Dickinson (BD)-Acurri C6 Flow Cytometer using a HyperCyt sampling apparatus (IntelliCyt) with a flow rate 2 μL/sec. CD11 b upregulation is monitored in neutrophils and identified using a combination of both side scatter and CD16 expression.

Consider `CN1CCC(C)(S(=O)(=O)c2c(Cl)ccc(NC(=O)Nc3cccc(F)c3Cl)c2O)CC1` [Compound of Formula (D), 1-(4-chloro-3-((1,4-dimethylpiperidin-4-yl)sulfonyl)-2-hydroxyphenyl)-3-(2-chloro-3-fluorophenyl)urea], for which the values for the IC50 on CXCR1 receptor and at CXCR2 receptor were 2.51 µM and 1.58 µM, respectively.
